The text below walks through data of patent publication US12116387B2, “Antimicrobial peptides” (priority 2021, dated 2024).

Series [1] deals with E. coli ATCC8739 and clinical isolate E. coli 1812446 (KPC-positive). Nature of the series: Systemic sepsis infection mouse model, E. coli strains. It counts as in vivo. As to conditions: 5 mg Kg^−1 i.p., 3 h post-infection. How it is done:
(§1) FIG. 5A-5I pertains to a study of the anti-infective activity of mast-MO against Gram-negative and Gram-positive pathogens in a lethal sepsis infection model. In FIG. 5A mice were infected with bacteria, treated with each peptide or antibiotic and monitored for 8 days. Survival and cell counts after 24 h, respectively, are shown for E. coli ATCC8739 (2×10^4 CFU/mL inoculum) FIG. 5B and FIG. 5C, S. aureus ATCC29213 (2×10^9 CFU/mL inoculum) FIG. 5D and FIG. 5E, E. coli 1812446 (KPC-positive) (2×10^4 CFU inoculum) FIG. 5F and FIG. 5G, and S. aureus (MRSA) ATCC33591 (2×10^9 CFU inoculum) FIG. 5H and FIG. 5I. Mice were treated intraperitoneally (i.p.) with 1, 5 and 10 mg Kg^−1 of mast-L, mast-MO or 10 mg Kg^−1 of the antibiotics gentamicin and imipenem. PBS was used as a control for the untreated group of mice. Treatments were administered 3 h post-infection. Data are expressed as the mean±standard deviation. Statistical analysis was performed using Bonferroni test. […], **p<0.01, ***p<0.001 compared to the untreated control.
(§2) Systemic bacterial infection mouse model. […] Animals were humanely killed 24 h after bacterial administration.

In the next series the test system is S. aureus ATCC29213. Nature of the series: Systemic sepsis infection mouse model, S. aureus ATCC29213. It counts as in vivo. The note with it: 5 mg Kg^−1 i.p. The method, then:
as §1, §2

The test system of series [2] is murine fibroblasts (L929). The experiment in a line: Cytotoxicity against L929 fibroblasts (MTT). It counts as cell-based. The note with it: L929. The method, then:
Mammalian cells toxicity assays. L929 mice fibroblasts (Rio de Janeiro Cell Bank) and SPCs were seeded in 96-well microtiter plates in a concentration of 1.0×10^5 cells per well, in DMEM medium, supplemented with different concentrations of tested peptides (1-600 μM). After 48 h incubation, a thiazolyl blue tetrazolium bromide (MTT) protocol was performed. Briefly, 60% of the medium was removed, and 10 μL of MTT (5 mg mL^−1) (Sigma, USA) solution was added to each well and the plate was incubated for 4 h, in 5% CO2, at 37° C. The blue formazan product generated was dissolved by the addition of 100 μL of 100% DMSO (Mallinckrodt, Germany) per well. Plates were then gently swirled for 5 min, at room temperature, to dissolve the precipitate. The absorbance was monitored at 575 nm using a microplate spectrophotometer (Bio-Tek, USA). Cytotoxicity was determined as a percentage of the maximum value after subtracting the background. The results were expressed as the percentage of each sample compared to the negative control (PBS buffer, pH 7.4) and cell culture was incubated in a lysis buffer (10 mM Tris, pH 7.4, 1 mM ethylenediamine tetraacetic acid (EDTA), and 0.1% Triton X-100).

The subject of a further series is leukocytes. Nature of the series: Leukocyte migration to the peritoneal cavity of mice infected with E. coli ATCC8739. It counts as in vivo, C57BL/6 mice. As to conditions: mast-MO 10 mg Kg^−1, mast-L 5 mg Kg^−1. The method, then:
To test whether the FLPII motif within the mast-MO sequence led to increased immunomodulatory and chemotactic properties with respect to mast-L, ELISA experiments were performed using the peritoneal fluid collected from mice (FIG. 5a). C57BL/6 mice were infected with both Gram-negative and Gram-positive pathogens and administered either mast-L or mast-MO intraperitoneally. For mice infected with E. coli ATCC8739, we monitored the peritoneal cavity to detect and quantify the release and presence of several immune mediators (FIG. 4E). […] This effect was similar to the positive control group of mice treated with […] (TGA) (FIG. 4B). […] We monitored, via ELISAs, the cytokine profiles present within the peritoneal cavity of mice infected with E. coli ATCC8739 and S. aureus ATCC29213 (FIGS. 4E and FIG. 4F, respectively) and treated with a single dose of peptide. […]
Isolation of leukocytes from the peritoneal cavity of mice. Leukocyte migration into the peritoneal cavity of uninfected C57BL/6 mice treated with 10 mg Kg^−1 of peptides was evaluated to assess the chemotactic activity of the peptides, as previously described (11). […] Leukocyte counts present in the in peritoneal cavity of mice infected with E. coli ATCC 8739 were quantified. […] The results are expressed as the number of cells per cavity (48).

In series [3] the test system is human red blood cells (hRBCs). The experiment in a line: Cytotoxicity / hemolysis against human red blood cells. It counts as cell-based. As to conditions: hRBCs.
Protocol: Once the mechanisms by which the peptide targeted bacterial cells was elucidawted, the effect of the pentapeptide motif insertion on cytotoxicity against mammalian cells was evaluated.
In a further series the test system is S. aureus MRSA ATCC33591. The experiment in a line: Systemic sepsis infection mouse model, MRSA. The class given is in vivo. As to conditions: 5 mg Kg^−1 i.p. How it is done: as §1, §2

Regarding NLKALAALAKKIL [Mast-L], the values for the Survival (in series [1]; in the series on S. aureus ATCC29213; with S. aureus MRSA ATCC33591) were 40 to 60%, 80% and 60%, respectively. In addition, the “Cytotoxic activity, Peptide Concentration” value was found to be 10 µmol/L in series [2] and 7 µmol/L in series [3]. Moreover, the “Leukocyte recruitment over the time period tested, in words” value in the series with leukocytes is “did not significantly induce leukocyte recruitment”.
